ChEMBL document CHEMBL5096156, “A Review of Progress in Histone Deacetylase 6 Inhibitors Research: Structural Specificity and Functional Diversity” (J Med Chem, 2021)
One block for each compound: values may come before it.

Tests used:
[1] = target: T1, Histone deacetylase 1 (Homo sapiens, UniProt Q13547); assay: Inhibition of HDAC1 (unknown origin)
[2] = target: T2, Protein deacetylase HDAC6 (Homo sapiens, UniProt Q9UBN7); assay: Inhibition of HDAC6 (unknown origin)
T2 sequence (Q9UBN7 whole entry): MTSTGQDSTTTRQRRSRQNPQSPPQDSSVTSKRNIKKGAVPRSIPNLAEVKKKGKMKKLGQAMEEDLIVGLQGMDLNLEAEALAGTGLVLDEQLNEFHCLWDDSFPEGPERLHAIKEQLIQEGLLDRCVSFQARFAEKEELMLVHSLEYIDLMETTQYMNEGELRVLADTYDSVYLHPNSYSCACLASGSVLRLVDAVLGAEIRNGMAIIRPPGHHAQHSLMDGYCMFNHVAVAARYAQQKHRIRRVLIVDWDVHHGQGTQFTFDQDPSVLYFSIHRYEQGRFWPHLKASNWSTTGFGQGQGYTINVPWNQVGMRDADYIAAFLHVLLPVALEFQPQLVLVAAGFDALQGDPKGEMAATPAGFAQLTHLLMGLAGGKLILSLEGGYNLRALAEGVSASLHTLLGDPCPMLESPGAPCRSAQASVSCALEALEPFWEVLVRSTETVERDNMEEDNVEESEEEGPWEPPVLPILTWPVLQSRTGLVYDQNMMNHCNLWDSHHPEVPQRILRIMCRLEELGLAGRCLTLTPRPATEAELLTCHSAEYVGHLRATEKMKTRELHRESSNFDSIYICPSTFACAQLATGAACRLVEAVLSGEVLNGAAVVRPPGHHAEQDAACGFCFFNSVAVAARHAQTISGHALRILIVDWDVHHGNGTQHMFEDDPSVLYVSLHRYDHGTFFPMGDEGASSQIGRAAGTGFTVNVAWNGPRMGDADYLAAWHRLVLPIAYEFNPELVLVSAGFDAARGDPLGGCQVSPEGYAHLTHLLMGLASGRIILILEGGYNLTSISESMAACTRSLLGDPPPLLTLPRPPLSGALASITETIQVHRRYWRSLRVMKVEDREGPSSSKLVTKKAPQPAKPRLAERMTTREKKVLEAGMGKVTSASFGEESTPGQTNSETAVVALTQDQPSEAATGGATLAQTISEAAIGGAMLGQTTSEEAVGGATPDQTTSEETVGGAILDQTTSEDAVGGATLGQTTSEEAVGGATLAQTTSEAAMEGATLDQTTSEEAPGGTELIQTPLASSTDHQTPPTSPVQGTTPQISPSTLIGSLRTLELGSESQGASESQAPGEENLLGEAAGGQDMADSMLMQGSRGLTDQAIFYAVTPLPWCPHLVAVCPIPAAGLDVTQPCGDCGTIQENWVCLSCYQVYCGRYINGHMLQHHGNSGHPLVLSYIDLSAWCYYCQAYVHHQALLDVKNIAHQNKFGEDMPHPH

[3] = target: T3, Protein deacetylase HDAC6 (Homo sapiens) (UniProt Q9UBN7); assay: Inhibition of recombinant HDAC6 (unknown origin) using […] fluorogenic peptide as substrate at 50 uM incubated for 1 hr by microplate reader assay
T3 sequence (whole entry): T2 sequence (Q9UBN7 whole entry)

[4] = target: Heat shock protein HSP 90-alpha (Homo sapiens) (UniProt P07900); assay: Inhibition of recombinant HSP90 alpha (unknown origin) at 50 uM by fluorescence polarization competitive binding assay
[5] = target: T3, Protein deacetylase HDAC6 (Homo sapiens); assay: Inhibition of recombinant HDAC6 (unknown origin) using […] fluorogenic peptide as substrate at 5 uM incubated for 1 hr by microplate reader assay
[6] = target: T4, Histone deacetylase 3 (Homo sapiens, UniProt O15379); assay: Inhibition of human recombinant HDAC3 incubated for 45 mins by microplate reader assay
[7] = target: Histone deacetylase 4 (Homo sapiens, UniProt P56524); assay: Inhibition of human recombinant HDAC4 incubated for 45 mins by microplate reader assay
[8] = target: T5, Histone deacetylase 11 (Homo sapiens, UniProt Q96DB2); assay: Inhibition of full length human recombinant HDAC11 incubated for 30 to 60 mins by HDAC-Glo I/II assay
T5 sequence (Q96DB2 whole entry): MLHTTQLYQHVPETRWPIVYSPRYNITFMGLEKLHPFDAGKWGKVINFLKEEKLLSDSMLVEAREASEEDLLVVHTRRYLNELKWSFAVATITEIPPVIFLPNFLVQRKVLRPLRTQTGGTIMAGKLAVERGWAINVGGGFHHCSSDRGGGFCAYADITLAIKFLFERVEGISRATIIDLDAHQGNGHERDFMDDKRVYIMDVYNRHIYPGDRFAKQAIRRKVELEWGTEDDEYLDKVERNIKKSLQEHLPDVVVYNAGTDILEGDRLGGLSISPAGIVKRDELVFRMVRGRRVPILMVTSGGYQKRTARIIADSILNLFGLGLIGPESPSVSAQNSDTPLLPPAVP

[9] = target: Histone deacetylase 2 (Homo sapiens, UniProt Q92769); assay: Inhibition of full length human recombinant HDAC2 incubated for 30 to 60 mins by HDAC-Glo I/II assay
[10] = target: T2, Protein deacetylase HDAC6; assay: Inhibition of full length human recombinant HDAC6 incubated for 30 to 60 mins by HDAC-Glo I/II assay
[11] = target: T6, Polyamine deacetylase HDAC10 (Homo sapiens, UniProt Q969S8); assay: Inhibition of full length human recombinant HDAC10 incubated for 30 to 60 mins by HDAC-Glo I/II assay
T6 sequence (Q969S8 whole entry): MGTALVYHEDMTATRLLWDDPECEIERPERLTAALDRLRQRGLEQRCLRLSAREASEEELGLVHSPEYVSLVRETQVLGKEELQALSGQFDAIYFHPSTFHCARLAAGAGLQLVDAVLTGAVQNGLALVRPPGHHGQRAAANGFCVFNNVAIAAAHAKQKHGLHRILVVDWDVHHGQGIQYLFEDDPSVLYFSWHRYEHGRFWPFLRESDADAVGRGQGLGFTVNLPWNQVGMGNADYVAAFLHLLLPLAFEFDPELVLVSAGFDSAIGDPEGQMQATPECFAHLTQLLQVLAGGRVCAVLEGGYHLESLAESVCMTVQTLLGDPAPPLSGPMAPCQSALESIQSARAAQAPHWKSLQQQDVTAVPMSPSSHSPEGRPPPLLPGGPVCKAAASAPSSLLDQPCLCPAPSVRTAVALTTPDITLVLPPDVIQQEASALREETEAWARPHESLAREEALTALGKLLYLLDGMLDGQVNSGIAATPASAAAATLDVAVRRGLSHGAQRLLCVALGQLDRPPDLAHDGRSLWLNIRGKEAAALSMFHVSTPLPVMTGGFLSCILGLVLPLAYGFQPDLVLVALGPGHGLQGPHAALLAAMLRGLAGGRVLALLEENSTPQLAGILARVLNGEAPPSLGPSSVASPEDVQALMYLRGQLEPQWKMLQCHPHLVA

[12] = target: T4, Histone deacetylase 3; assay: Inhibition of full length human recombinant HDAC3 incubated for 30 to 60 mins by HDAC-Glo I/II assay
[13] = target: T7, Histone deacetylase 8 (Homo sapiens, UniProt Q9BY41); assay: Inhibition of full length human recombinant HDAC8 incubated for 30 to 60 mins by HDAC-Glo I/II assay
T7 sequence (Q9BY41 whole entry): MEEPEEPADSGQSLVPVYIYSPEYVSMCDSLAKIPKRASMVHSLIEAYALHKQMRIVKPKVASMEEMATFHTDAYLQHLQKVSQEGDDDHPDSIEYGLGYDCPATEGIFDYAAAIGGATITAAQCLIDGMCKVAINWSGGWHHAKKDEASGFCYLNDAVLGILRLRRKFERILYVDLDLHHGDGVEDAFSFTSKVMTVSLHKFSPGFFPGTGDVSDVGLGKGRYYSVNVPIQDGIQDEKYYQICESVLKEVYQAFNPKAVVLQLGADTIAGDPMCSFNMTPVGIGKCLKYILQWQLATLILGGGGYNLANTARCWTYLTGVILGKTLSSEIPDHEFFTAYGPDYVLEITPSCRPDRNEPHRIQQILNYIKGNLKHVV

[14] = target: T1, Histone deacetylase 1; assay: Inhibition of full length human recombinant HDAC1 incubated for 30 to 60 mins by HDAC-Glo I/II assay

T4 sequence (O15379 whole entry): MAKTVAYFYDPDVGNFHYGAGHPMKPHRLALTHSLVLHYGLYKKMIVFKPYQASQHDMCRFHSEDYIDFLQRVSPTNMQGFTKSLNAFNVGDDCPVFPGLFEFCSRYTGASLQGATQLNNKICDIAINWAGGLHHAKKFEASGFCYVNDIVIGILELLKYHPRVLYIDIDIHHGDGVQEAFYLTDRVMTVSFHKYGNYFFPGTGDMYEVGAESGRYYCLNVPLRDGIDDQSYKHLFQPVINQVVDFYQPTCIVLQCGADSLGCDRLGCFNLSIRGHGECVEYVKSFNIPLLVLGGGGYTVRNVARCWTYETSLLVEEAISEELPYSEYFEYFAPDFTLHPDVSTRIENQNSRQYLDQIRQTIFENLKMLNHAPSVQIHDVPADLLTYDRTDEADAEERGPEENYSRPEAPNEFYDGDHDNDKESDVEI
T1 sequence (Q13547 whole entry): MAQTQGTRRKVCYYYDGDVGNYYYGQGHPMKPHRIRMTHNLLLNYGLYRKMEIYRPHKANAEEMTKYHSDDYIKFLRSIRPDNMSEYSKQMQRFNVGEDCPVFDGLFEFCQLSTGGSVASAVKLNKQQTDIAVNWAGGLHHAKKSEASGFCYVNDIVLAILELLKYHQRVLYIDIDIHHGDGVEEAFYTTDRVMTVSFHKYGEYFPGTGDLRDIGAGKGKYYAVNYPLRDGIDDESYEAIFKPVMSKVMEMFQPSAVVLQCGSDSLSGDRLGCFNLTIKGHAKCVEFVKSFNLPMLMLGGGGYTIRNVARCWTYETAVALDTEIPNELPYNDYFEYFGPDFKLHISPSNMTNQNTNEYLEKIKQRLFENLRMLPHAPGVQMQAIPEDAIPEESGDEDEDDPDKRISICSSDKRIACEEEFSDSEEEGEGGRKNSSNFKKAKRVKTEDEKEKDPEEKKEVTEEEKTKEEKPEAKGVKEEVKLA
Histone deacetylase 2, sequence (Q92769 whole entry): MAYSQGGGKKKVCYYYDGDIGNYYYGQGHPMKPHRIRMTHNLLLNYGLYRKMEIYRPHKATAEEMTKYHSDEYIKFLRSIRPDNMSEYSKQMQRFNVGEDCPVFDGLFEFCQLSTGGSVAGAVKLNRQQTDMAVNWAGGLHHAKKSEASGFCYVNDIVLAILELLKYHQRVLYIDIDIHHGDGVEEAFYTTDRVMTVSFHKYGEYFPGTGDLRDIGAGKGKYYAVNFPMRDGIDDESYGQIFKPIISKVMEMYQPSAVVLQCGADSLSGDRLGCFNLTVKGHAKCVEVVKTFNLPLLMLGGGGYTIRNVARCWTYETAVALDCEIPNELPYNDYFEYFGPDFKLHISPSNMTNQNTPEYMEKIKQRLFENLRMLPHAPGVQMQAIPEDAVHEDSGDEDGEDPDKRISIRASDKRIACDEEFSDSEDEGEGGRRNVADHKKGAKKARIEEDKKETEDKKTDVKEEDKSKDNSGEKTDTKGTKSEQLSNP
Histone deacetylase 4, sequence (P56524 whole entry): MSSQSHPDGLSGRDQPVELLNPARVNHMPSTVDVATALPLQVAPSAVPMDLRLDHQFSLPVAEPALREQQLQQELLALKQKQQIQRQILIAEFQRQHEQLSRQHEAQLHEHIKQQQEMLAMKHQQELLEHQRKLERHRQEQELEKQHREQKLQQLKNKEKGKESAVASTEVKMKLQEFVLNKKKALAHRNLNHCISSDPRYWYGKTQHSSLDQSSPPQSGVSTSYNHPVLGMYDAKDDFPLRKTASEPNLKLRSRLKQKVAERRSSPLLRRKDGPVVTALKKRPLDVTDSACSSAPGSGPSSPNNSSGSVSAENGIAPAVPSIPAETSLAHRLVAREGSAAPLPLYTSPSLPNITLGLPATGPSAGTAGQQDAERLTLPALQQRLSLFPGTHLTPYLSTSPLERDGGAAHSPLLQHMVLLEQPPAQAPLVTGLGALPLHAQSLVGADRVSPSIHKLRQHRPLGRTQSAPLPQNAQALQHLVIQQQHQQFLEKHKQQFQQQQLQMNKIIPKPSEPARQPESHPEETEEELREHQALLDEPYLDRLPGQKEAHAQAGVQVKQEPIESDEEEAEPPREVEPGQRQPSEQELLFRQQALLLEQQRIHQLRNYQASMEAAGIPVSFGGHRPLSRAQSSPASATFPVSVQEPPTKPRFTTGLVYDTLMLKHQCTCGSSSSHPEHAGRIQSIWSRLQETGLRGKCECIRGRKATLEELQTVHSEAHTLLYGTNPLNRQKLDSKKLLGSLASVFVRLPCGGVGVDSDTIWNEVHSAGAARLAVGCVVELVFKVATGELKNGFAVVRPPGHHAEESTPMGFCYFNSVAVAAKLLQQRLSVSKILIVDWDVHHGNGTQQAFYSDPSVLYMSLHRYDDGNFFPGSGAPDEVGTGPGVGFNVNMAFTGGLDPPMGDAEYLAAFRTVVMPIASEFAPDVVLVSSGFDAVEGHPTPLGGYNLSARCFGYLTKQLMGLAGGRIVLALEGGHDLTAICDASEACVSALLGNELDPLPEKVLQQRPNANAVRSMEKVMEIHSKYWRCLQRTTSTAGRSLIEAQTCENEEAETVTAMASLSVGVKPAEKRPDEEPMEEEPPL

IC50 [1]: 322 nM
IC50 [2]: 6.9 nM
SMILES: CCN(CC)Cc1ccc(Cn2c(=O)c(OCc3ccc(C(=O)NO)cc3)c(-c3ccccc3)c3ccccc32)cc1

inhibition [3]: 62%
inhibition [4]: 32%
inhibition [5]: 53%
SMILES: Cc1nc(N)nc(COC(=O)c2cccc(-c3cc(C(F)(F)F)on3)c2)n1

IC50 [6]: > 10000 nM
IC50 [7]: 1700 nM
SMILES: O=C(NO)c1ccc(CC(=O)N(CCO)c2ccccc2)cc1

IC50 [8]: > 30000 nM
IC50 [9]: 162 nM
IC50 [10]: 0.1 nM
IC50 [11]: 375 nM
IC50 [12]: 64 nM
IC50 [13]: > 30000 nM
IC50 [14]: 108 nM
SMILES: COc1ccc2c3c(cccc13)C(=O)N(Cc1ccc(C(=O)NO)cc1)C2=O
